{"source": "patent US20150328147A1", "about": "“METHOD FOR INTRODUCING BIOLOGICALLY ACTIVE SUBSTANCES INTO THE BRAIN” (BBU-VITA CORP., priority 2012, published 2015)", "key": {"[1]": {"tested_on": "sexually mature white rats", "test": "Experiment 3: duration of phenobarbital sleep after single or fractionated nasal administration with H2O2", "assay_type": "in vivo", "conditions": "phenobarbital 90 mg/kg, H2O2 10^−5M", "excerpt": "Experiment 3: The effect of phenobarbital was investigated experimentally on sexually mature white rats, using a nasal administration. The sleep duration conditioned by phenobarbital following nasal administration of phenobarbital was compared against the presence and absence of vaso-active and neuroactive substance. The typical results of an experiment are listed in Tab. 4."}, "[2]": {"tested_on": "haloperidol catalepsy model", "conditions": "for re-animation of spontaneous motor activity: nasal 2 × 50 μL after haloperidol i.p., dopamine 10^−2M (0.8 mg/kg), H2O2 10^−5M (34 ng/animal)"}, "[3]": {"tested_on": "haloperidol catalepsy model", "description": "The criteria of the evaluation: the change in spontaneous motor activity as the sum of movements of the rats in different groupings of the animals, in the “open field” test."}, "[4]": {"tested_on": "haloperidol catalepsy model", "remark": "listed apart in the source", "description": "The criteria of the evaluation: the change in spontaneous motor activity as the sum of movements of the rats in different groupings of the animals, in the “open field” test. The animal groups: control group: “intact control” (Group I), “haloperidol i.p.” (Group II), “haloperidol i.p.+nasal dopamine” (Group III), and “haloperidol i.p.+nasal L-arginine” in various concentrations (Groups IV and V)."}, "[5]": {"tested_on": "haloperidol catalepsy model", "conditions": "earlier demonstration (DE 102 48 601); cited from earlier work"}, "[6]": {"conditions": "Experiment 1, haloperidol i.p. 100 mg/kg, without H2O2, nasal dopamine 10^−3M where given, sum of movements, open field"}, "[7]": {"conditions": "Experiment 2, haloperidol i.p. 100 mg/kg, without L-arginine, nasal dopamine 10^−3M where given, sum of movements, open field"}, "[8]": {"conditions": "with nasal dopamine 10^−3M, haloperidol model"}}, "note": "Read-outs that look alike come from different tables or passages of the source."}
{"compound": "CCC1(c2ccccc2)C(=O)NC(=O)NC1=O", "note": "[phenobarbital]", "values": [{"measurement": "Duration of the experimental sleep (Minutes following the last administration)", "setting": "[1]; single nasal application of the full dose 18 mg, 2 × 100 μL", "result": "128 ± 11.1", "unit": "min"}, {"measurement": "Duration of the experimental sleep (Minutes following the last administration)", "setting": "[1]; triple nasal application of partial doses 3 × 6 (mg), interval 60 s", "result": "161 ± 21.1", "unit": "min"}]}
{"compound": "O=C(CCCN1CCC(O)(c2ccc(Cl)cc2)CC1)c1ccc(F)cc1", "note": "[haloperidol]", "values": [{"measurement": "reduction of spontaneous motor activity", "setting": "[2]; single i.p. haloperidol 0.25 mg/kg, cataleptic response", "result": 85, "unit": "%"}, {"measurement": "Spontaneous activity", "setting": "[3]; [6]", "result": "3 ± 3 ^##)"}, {"measurement": "Spontaneous activity", "setting": "[4]; [7]", "result": "3.7 ± 3 ^##)"}]}
{"compound": "NCCc1ccc(O)c(O)c1", "note": "[dopamine]", "values": [{"measurement": "re-animation of spontaneous motor activity", "setting": "[2]", "result": "did not re-animate the motor activity"}, {"measurement": "Spontaneous activity", "setting": "[3]; [6]", "result": "2 ± 1.7 ^##)"}, {"measurement": "Spontaneous activity", "setting": "[4]; [7]", "result": "2.6 ± 1.7 ^##)"}]}
{"compound": "N=C(N)NCCC[C@H](N)C(=O)O", "note": "[L-arginine]", "values": [{"measurement": "reanimation of spontaneous motor activity by L-arginine administered nasally together with dopamine", "setting": "[5]", "result": "able to reanimate spontaneous motor activity"}, {"measurement": "Spontaneous activity", "setting": "[4]; Experiment 2, haloperidol i.p., nasal L-arginine 10^−3M (dopamine 10^−3M in the mixture)", "result": "6.4 ± 3.4 ^##)"}, {"measurement": "Spontaneous activity", "setting": "[4]; Experiment 2, haloperidol i.p., nasal L-arginine 10^−5M", "result": "4.8 ± 2.7 ^##)"}, {"measurement": "minimal effective concentration of the endonasal L-arginine", "setting": "[4]; [8]", "result": "~10^−7 M"}]}
{"compound": "OO", "note": "[H2O2, hydrogen peroxide]", "values": [{"measurement": "re-animation of spontaneous motor activity", "setting": "[2]", "result": "did not re-animate the motor activity"}, {"measurement": "Spontaneous activity", "setting": "[3]; Experiment 1, haloperidol i.p., nasal H2O2 10^−4M (dopamine 10^−3M in the mixture)", "result": "1.8 ± 2.2 ^##)"}, {"measurement": "Spontaneous activity", "setting": "[3]; Experiment 1, haloperidol i.p., nasal H2O2 10^−5M", "result": "3 ± 1.9 ^##)"}, {"measurement": "minimal effective concentration of the endonasal hydrogen peroxide", "setting": "[3]; [8]", "result": "10^−8 to 10^−10 M"}]}
